Source: patent US10301295B2, “Herbicidal compounds” (Syngenta Participations AG, priority 2014, dated 2019)
Where two headings read alike, the source gives them in different places.

How the values were obtained:
Assay type in all cases: in vivo
[1] = system: Alopecurus myosuroides (ALOMY); assay: Glasshouse assay for herbicidal activity, pre-/post-emergence (percentage phytotoxicity); conditions: Alopecurus myosuroides, Rate 250 g/ha, 100%=total damage, 0%=no damage
Method in brief: (§1)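 Percentage phytotoxicity was assessed visually, 100% meaning total plant damage and 0% none, at 20 days after application for pre-emergence and 15 days for post-emergence. Plants were potted in standard soil and treated after 1 day or about 12 days of growth.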

[2] = system: Avena fatua (AVEFA); assay: as above; conditions: Avena fatua, Rate 250 g/ha, 100%=total damage, 0%=no damage
Method in brief: as §1

[3] = system: Echinochloa crus-galli (ECHCG); assay: as above; conditions: Echinochloa crus-galli, Rate 250 g/ha, 100%=total damage, 0%=no damage
Method in brief: as §1

[4] = system: Lolium perenne (LOLPE); assay: as above; conditions: Lolium perenne, Rate 250 g/ha, 100%=total damage, 0%=no damage
Method in brief: as §1

[5] = system: wheat; assay: Post-emergence herbicidal activity against cereal crops (wheat) +/- safener, crop selectivity; conditions: 100%=total damage to plant, 0%=no damage; for Post-emergence herbicidal activity against wheat (percentage phytotoxicity), +CQC: 250 g/ha, plus safener cloquintocet-mexyl (CQC) applied at 50 g/ha; for percent phytotoxicity (crop damage) to wheat at 250 g/ha: Triticum aestivum, 360 h, without safener, read-out: Post-emergence herbicidal activity against wheat (percentage phytotoxicity), Wheat - CQC
Method in brief: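 Test plants raised in pots in a glasshouse (24/18 °C warm or 20/16 °C cool species day/night, 16 h light, 65% humidity) and treated post-emergence about 12 days after sowing. Visual percentage phytotoxicity scored 15 days after application (0% = no damage, 100% = total damage).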

[6] = 360 h, post-emergence, visual assessment 15 DAA, read-out: Post-emergence herbicidal activity (percentage phytotoxicity), ALOMY POST
[7] = 480 h, pre-emergence, visual assessment 20 DAA, read-out: Pre-emergence herbicidal activity (percentage phytotoxicity), ALOMY PRE
[8] = post-emergence, 360 h, post-emergence, visual assessment 15 DAA, read-out: Post-emergence herbicidal activity (percentage phytotoxicity), AVEFA POST
[9] = pre-emergence, 480 h, pre-emergence, visual assessment 20 DAA, read-out: Pre-emergence herbicidal activity (percentage phytotoxicity), AVEFA PRE
[10] = post-emergence, 360 h, post-emergence, visual assessment 15 DAA, read-out: Post-emergence herbicidal activity (percentage phytotoxicity), ECHCG POST
[11] = pre-emergence, 480 h, pre-emergence, visual assessment 20 DAA, read-out: Pre-emergence herbicidal activity (percentage phytotoxicity), ECHCG PRE
[12] = post-emergence, 360 h, post-emergence, visual assessment 15 DAA, read-out: Post-emergence herbicidal activity (percentage phytotoxicity), LOLPE POST
[13] = pre-emergence, 480 h, pre-emergence, visual assessment 20 DAA, read-out: Pre-emergence herbicidal activity (percentage phytotoxicity), LOLPE PRE

Structure (SMILES)	pest or weed control at 250 g/ha [1, 6] [%]	pest or weed control at 250 g/ha [1, 7] [%]	pest or weed control at 250 g/ha [2, 8] [%]	pest or weed control at 250 g/ha [2, 9] [%]	pest or weed control at 250 g/ha [3, 10] [%]	pest or weed control at 250 g/ha [3, 11] [%]	pest or weed control at 250 g/ha [4, 12] [%]	pest or weed control at 250 g/ha [4, 13] [%]	Post-emergence herbicidal activity against wheat (percentage phytotoxicity), +CQC [5] [%]	percent phytotoxicity (crop damage) to wheat at 250 g/ha [5] [%]
Cc1cc(C)c(C2C(=O)CC(CCNC(=O)NC(=O)c3ccccc3F)C2=O)c(C)c1 (centres unmarked) [Compound A54]	100	60	100	60	100	80	100	80	80	90
Cc1cc(C)c(C2C(=O)CC(CCNC(=O)NC(=O)c3ccccc3C#N)C2=O)c(C)c1 (centres unmarked) [Compound A67]	–	0	–	0	–	30	–	20	0	0
Cc1cc(C)c(C2C(=O)CC(CCNS(=O)(=O)C(C)C)C2=O)c(C)c1 (centres unmarked) [Compound A77]	80	100	80	70	70	70	80	80	10	80
Cc1cc(-n2cc(Cl)cn2)cc(C)c1C1C(=O)CC(CCNC(=O)Nc2ccc(F)cn2)C1=O (centres unmarked) [Compound A28]	90	70	100	70	90	90	80	70	20	80
Cc1cc(C)c(C2C(=O)CC(CCNC(=O)NC(=O)c3c(Cl)cccc3Cl)C2=O)c(C)c1 (centres unmarked) [Compound A52]	90	80	80	70	90	100	90	80	30	80
Cc1cc(C)c(C2C(=O)CC(CCNC(=O)NCc3ccccc3)C2=O)c(C)c1 (centres unmarked) [Compound A7]	10	0	90	0	90	0	70	0	0	20
CON=C(C)C(=O)NCCC1CC(=O)C(c2c(C)cc(C)cc2C)C1=O (centres unmarked) [Compound A39]	80	80	80	50	50	30	100	90	10	60
Cc1cc(C)c(C2C(=O)CC(CCNC(=O)N(C)c3ccccc3)C2=O)c(C)c1 (centres unmarked) [Compound A8]	80	70	90	90	80	90	90	90	10	70
CON=C(C#N)C(=O)NCCC1CC(=O)C(c2c(C)cc(-n3cc(Cl)cn3)cc2C)C1=O (centres unmarked) [Compound A42]	0	0	0	0	70	0	10	0	10	0
Cc1cc(C)c(C2C(=O)CC(CCNC(=O)NC(=O)c3c(F)cccc3F)C2=O)c(C)c1 (centres unmarked) [Compound A48]	90	100	100	90	100	90	100	100	50	60
Cc1cc(C)c(C2C(=O)CC(CCNS(=O)(=O)c3ccc(Cl)cc3Cl)C2=O)c(C)c1 (centres unmarked) [Compound A84]	30	50	80	10	50	30	70	50	0	0
Cc1cc(C)c(C2C(=O)CC(CCNC(=O)NO)C2=O)c(C)c1 (centres unmarked) [Compound A26]	10	0	0	0	10	0	40	0	10	0
Cc1cc(C)c(C2C(=O)CC(CCNC(=O)Nc3cc(C(C)(C)F)ncn3)C2=O)c(C)c1 (centres unmarked) [Compound A16]	90	80	100	70	80	100	90	90	50	80
Cc1cc(C)c(C2C(=O)CC(CCNC(=O)N(C)C(C)(C)C)C2=O)c(C)c1 (centres unmarked) [Compound A14]	80	90	90	90	100	100	100	100	30	60
COc1ccc(C(=O)NC(=O)NCCC2CC(=O)C(c3c(C)cc(C)cc3C)C2=O)cc1 (centres unmarked) [Compound A57]	90	80	50	0	80	100	100	70	20	80
